Experimental data: US20250123297A1, “Supermere Nanoparticles and Methods of Isolation and Use Thereof” (Vanderbilt University, priority 2021, published 2025)

Columns and labels:
MDA-MB-231 cells = experiment: Inhibition of cellular supermere uptake by uptake inhibitors; type: cell-based, human; conditions: 30 min pre-incubation with inhibitor, labeled supermeres 24 h, 100 nM bafilomycin A
Description: (§1) For inhibitor treatment before supermere uptake, MDA-MB-231 cells were seeded at 20,000 cells per well or Hela cells at 25,000 cells per well on a 35-mm dish (P35G-0.170-14-C, MatTek Corporation) in DMEM culture media. Twenty-four hours later, cells were pre-incubated with the inhibitors in serum free DMEM media for 30 min. The following inhibitors were used: 100 nM bafilomycin A (Sigma, SML1661-. 1ML), 20 μM dynasore (Sigma, D7693-5 MG), 25 μM CK666 (Sigma, SML0006), 5 μM cytochalasin D (Sigma, C2618-200 ul). The Alexa Fluor 647-labeled supermeres (40 μg/ml) were added to the cells for 24 h in the presence of indicated inhibitors. […] Brightfield (30 ms exposure time) and fluorescence (640 Far Red, 10% laser power, 100 ms exposure time) images were taken of 10 or more fields of view, each with several cells per field. Three z-slices 1 μm apart were taken of each fluorescent field and the brightest slice was analyzed.
(§2) Brightfield images were used to identify cell boundaries and an ROI was drawn manually around each cell in each field of view. These region of interests (ROIs) were then opened on the fluorescent image and the mean fluorescence intensity of each ROI (cell) was measured. For each field of view, a background ROI was drawn in a region with no cells, and this background value was subtracted from each cell fluorescence mean in the field of view. […]

Hela cells = experiment: as above; type: cell-based; conditions: 30 min pre-incubation with inhibitor, labeled supermeres 24 h, 100 nM bafilomycin A
Description: as §1, §2

SMILES: CO/C1=C\C(C)=C\[C@@H](C)[C@@H](O)[C@@H](C)C/C(C)=C/C=C/[C@H](OC)[C@@H]([C@@H](C)[C@@H](O)[C@H](C)[C@@]2(O)C[C@@H](O)[C@H](C)[C@@H](C(C)C)O2)OC1=O [bafilomycin A]
- inhibition of supermere internalization (MDA-MB-231 cells): greatest inhibition of supermere internalization
- inhibition of supermere internalization (Hela cells): greatest inhibition of supermere internalization
